From the supplement of paper PMC10307832

What follows are cell lines tested with Cc1ccc(C(=O)Nc2ccc(CN3CCN(C)CC3)c(C(F)(F)F)c2)cc1C#Cc1cnc2cccnn12 [Ponatinib] (assay: relative viability (nuclei count vs DMSO), 5 days (fraction); higher = more cells survive). Details: 0.002 µM.
Method in brief: (§1)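 Viability was defined as treated-well nuclei divided by vehicle-well nuclei, with the median taken over replicate plates. Cells from lung cancer lines sat overnight at 37 °C in 1536-well plates, received five √10-spaced library-drug doses by pinning on vehicle-anchored plates, and grew 5 days without medium change before one-step fixation, permeabilisation and Hoechst staining, 4× imaging and MetaXpress nuclear counts. Only plates with control CV under 25% and at least one doubling were kept.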

Cell Line	relative viability
NCI-H647	0.818
LK-2	0.872
NCI-H2087	0.877
NCI-H1395	0.675
H3255	0.867
COR-L23	0.887
COR-L 105	1.01
IA-LM	0.872
LOU-NH91	0.957
NCI-H358	0.904
NCI-H3122	0.979
HOP-62	0.921
HCC-44	0.908
A549	0.809
LU99A	0.94
BEN	0.765

Cell Line	relative viability
HARA	0.844
HCC-78	0.8
LCLC-97TM1	0.925
NCI-H2009	0.95
A-427	0.928
NCI-H460	0.943
NCI-H727	0.883
NCI-H1734	0.938
NCI-H520	0.774
NCI-H2405	0.935
SW 1573	0.961
NCI-H1793	0.959
201T	0.928
NCI-H1915	0.906
HCC-827	0.983
LXF-289	0.948

Same assay, conditions: 0.006325 µM

Cell Line	relative viability
Calu-6	0.967
HCC-366	1.04
NCI-H1666	0.977
NCI-H647	1.05
LK-2	1
NCI-H2087	0.782
NCI-H1395	0.934
H3255	0.97
COR-L23	0.941
COR-L 105	0.933
IA-LM	0.903
LOU-NH91	1.03
NCI-H358	1.04
NCI-H3122	0.997
HOP-62	0.86
HCC-44	0.929
A549	0.975
LU99A	1.02

Cell Line	relative viability
BEN	0.967
HARA	0.972
HCC-78	0.994
LCLC-97TM1	0.996
NCI-H2009	0.944
A-427	1.05
NCI-H460	0.958
NCI-H727	0.855
NCI-H1734	0.974
NCI-H520	0.921
NCI-H2405	1.06
SW 1573	0.955
NCI-H1793	0.914
201T	0.986
NCI-H1915	1
HCC-827	1.03
LXF-289	0.998

Same assay, conditions: 0.06325 µM

Cell Line	relative viability
Calu-6	1.02
HCC-366	1.05
NCI-H1666	1.11
NCI-H647	1.09
LK-2	0.816
NCI-H2087	0.928
NCI-H1395	0.91
H3255	0.984
COR-L23	0.97
COR-L 105	1.18
IA-LM	0.953
LOU-NH91	1.04
NCI-H358	1.01
NCI-H3122	1.02
HOP-62	0.912
HCC-44	0.942
A549	1.02
LU99A	0.943

Cell Line	relative viability
BEN	1.01
HARA	0.938
HCC-78	1.03
LCLC-97TM1	0.961
NCI-H2009	1.07
A-427	0.958
NCI-H460	0.969
NCI-H727	1.2
NCI-H1734	1
NCI-H520	0.832
NCI-H2405	1.02
SW 1573	1.06
NCI-H1793	0.89
201T	1.07
NCI-H1915	0.986
HCC-827	1.07
LXF-289	0.984

Same assay, conditions: 0.2 µM

Cell Line	relative viability
Calu-6	0.905
HCC-366	0.989
NCI-H1666	1.04
NCI-H647	0.769
LK-2	0.73
NCI-H2087	0.974
NCI-H1395	0.708
H3255	0.908
COR-L23	0.876
COR-L 105	1.05
IA-LM	0.802
LOU-NH91	0.938
NCI-H358	0.9
NCI-H3122	1.02
HOP-62	0.857
HCC-44	0.958
A549	0.917
LU99A	0.939

Cell Line	relative viability
BEN	0.847
HARA	0.914
HCC-78	0.874
LCLC-97TM1	0.892
NCI-H2009	1.03
A-427	0.81
NCI-H460	0.985
NCI-H727	0.872
NCI-H1734	0.871
NCI-H520	0.628
NCI-H2405	0.847
SW 1573	0.897
NCI-H1793	0.715
201T	0.963
NCI-H1915	0.971
HCC-827	1.03
LXF-289	0.969

Each cell line was assayed with Cc1ccc(Nc2nccc(N(C)c3ccc4c(C)n(C)nc4c3)n2)cc1S(N)(=O)=O [Pazopanib] in the same assay as above. Details: 0.01 µM.
Method in brief: as §1

Cell Line	relative viability
Calu-6	0.99
HCC-366	0.922
NCI-H1666	0.989
NCI-H647	0.885
LK-2	0.891
NCI-H2087	1.02
NCI-H1395	0.848
H3255	0.925
COR-L23	1.13
COR-L 105	1.08
IA-LM	0.935
LOU-NH91	0.903
NCI-H358	1.04
NCI-H3122	1.04
HOP-62	0.963
HCC-44	0.886
A549	0.935

Cell Line	relative viability
LU99A	0.759
BEN	0.729
HARA	0.957
HCC-78	0.743
NCI-H2009	0.989
A-427	0.863
NCI-H460	0.966
NCI-H727	0.841
NCI-H1734	0.776
NCI-H520	0.858
NCI-H2405	0.895
SW 1573	0.948
201T	0.937
NCI-H1915	0.915
HCC-827	1.11
LXF-289	1.07

Same assay, conditions: 0.03162 µM

Cell Line	relative viability
Calu-6	1.07
HCC-366	0.989
NCI-H1666	1
NCI-H647	1.08
LK-2	0.965
NCI-H2087	1.06
NCI-H1395	1.03
H3255	0.965
COR-L23	1
COR-L 105	0.91
IA-LM	0.995
LOU-NH91	0.955
NCI-H358	0.927
NCI-H3122	0.997
HOP-62	1
HCC-44	0.929
A549	0.99
LU99A	0.909

Cell Line	relative viability
BEN	1.1
HARA	0.978
HCC-78	1
LCLC-97TM1	1
NCI-H2009	1.04
A-427	1.12
NCI-H460	1
NCI-H727	0.907
NCI-H1734	1.03
NCI-H520	1.01
NCI-H2405	0.998
SW 1573	1.02
NCI-H1793	0.875
201T	0.919
NCI-H1915	1.02
HCC-827	1.06
LXF-289	0.989

Same assay, conditions: 0.1 µM

Cell Line	relative viability
Calu-6	1.04
HCC-366	1.03
NCI-H1666	1.01
NCI-H647	0.895
LK-2	0.943
NCI-H2087	1.07
NCI-H1395	0.825
H3255	0.869
COR-L23	1.04
COR-L 105	0.95
IA-LM	1.03
LOU-NH91	0.949
NCI-H358	0.933
NCI-H3122	1.01
HOP-62	1.02
HCC-44	0.998
A549	1.04
LU99A	1.01

Cell Line	relative viability
BEN	0.929
HARA	1
HCC-78	0.889
LCLC-97TM1	0.912
NCI-H2009	0.937
A-427	0.885
NCI-H460	1.04
NCI-H727	0.91
NCI-H1734	1.11
NCI-H520	1.01
NCI-H2405	1.01
SW 1573	1.07
NCI-H1793	0.856
201T	0.979
NCI-H1915	0.995
HCC-827	1.04
LXF-289	1.04

Same assay, conditions: 0.3162 µM

Cell Line	relative viability
Calu-6	1.01
HCC-366	1
NCI-H1666	0.976
NCI-H647	0.956
LK-2	0.928
NCI-H2087	1.09
NCI-H1395	1.1
H3255	0.998
COR-L23	1.09
COR-L 105	1.1
IA-LM	1.05
LOU-NH91	1.11
NCI-H358	0.991
NCI-H3122	1.06
HOP-62	1.07
HCC-44	0.983
A549	1.01
LU99A	1.03

Cell Line	relative viability
BEN	1.05
HARA	1.04
HCC-78	0.933
LCLC-97TM1	1.02
NCI-H2009	1.02
A-427	1
NCI-H460	1.01
NCI-H727	1
NCI-H1734	1.13
NCI-H520	1.1
NCI-H2405	1.04
SW 1573	1.2
NCI-H1793	0.961
201T	1.06
NCI-H1915	0.961
HCC-827	1.07
LXF-289	0.997

Same assay, conditions: 1 µM

Cell Line	relative viability
Calu-6	0.974
HCC-366	1.1
NCI-H1666	1.07
NCI-H647	1.13
LK-2	0.858
NCI-H2087	0.908
NCI-H1395	1.2
H3255	1.01
COR-L23	1.04
COR-L 105	1.14
IA-LM	0.918
LOU-NH91	1.01
NCI-H358	1.15
NCI-H3122	1.05
HOP-62	0.958
HCC-44	1.02
A549	1.17
LU99A	1.01

Cell Line	relative viability
BEN	1.05
HARA	1.03
HCC-78	0.936
LCLC-97TM1	1.04
NCI-H2009	0.891
A-427	1.14
NCI-H460	1.05
NCI-H727	1.16
NCI-H1734	1.12
NCI-H520	1.11
NCI-H2405	1.1
SW 1573	1.13
NCI-H1793	1.16
201T	0.932
NCI-H1915	0.894
HCC-827	1.04
LXF-289	1
